Tests used:
[1] = system: rhNBD1 ATP binding site; experiment: Intrinsic tryptophan (W401) fluorescence of NBD1; design: species or system human; conditions: preincubation of rhNBD1 with peptide
Procedure: To assess the capability of P31-43 peptide to bind NBD1 domain and modify its ATP binding site the intrinsic Tryptophan fluorescence of NBD1 was measured. Experiments were performed in a 0.2 ml fluorimeter cuvette at 25° C. using Varian Cary Eclipse fluorescence spectrophotometer. NBD1 protein was diluted to 1 μM in a buffer containing 50 mM Tris/HCl (pH 7.6), 150 mM NaCl, and 5 mM MgCl2, supplemented with 2 mM ATP and P31-43 5 μM when indicated. All spectra were corrected for buffer fluorescence. Excitation wavelength was adjusted to 292 nm and emission was scanned over the range 300-500 nm.

[2] = system: recombinant human NBD1 (rhNBD1); experiment: Surface plasmon resonance peptide-protein interaction; type: binding
Procedure: Peptide-protein interactions were studied using a Biacore™ T100 (GE Healthcare) instrument. hrNBD1 domain or the indicated biotinylated peptides were immobilized by thiol coupling on a CMS (series S) sensor chip to a final density of 2000 resonance units (RU) or by biotin-streptavidin capture on a SA (series S) sensor chip to a final density of 250 RU, respectively. A flow cell with no immobilized protein or peptide was used as control. Binding analysis was carried out at 20° C. in a running buffer consisting of 10 mM HEPES, pH 7.4, 150 mM NaCl, 0.05% (v/v) Tween-20, 2 mM ATP, 5 mM MgCl2, 1 mM DTT applying a flow rate of 20 μl/min. For each experiment a Biacore™ method program was used. It included a series of three start up injections (running buffer), zero control (running buffer) and different concentrations of ligand. […] Each sensorgram (time-course of the surface plasmon resonance signal) was corrected for the response obtained in the control flow cell and normalized to baseline. Data were analysed using the 2.0.3 BIAevaluation software (GE Healthcare). At least three independent experiments for each analysis were performed.
FIG. 2: a, Protein-Protein docking and Molecular Dynamics of P31-43 (violet) bound to NBD1 (orange). Left side: general view of P31-43 and NBD1 interaction. Upper right: detailed interaction pattern, highlighting the most important amino acids. Lower right: in silico NBD1/P31-43 complex compared to the original crystallographic positions of Tip 401 and ATP. b, Graphical view of the in silico sampling percentage of P31-43 against NBD1/NBD2 (left 10 panel), and of P31-43/4QA (4QA) against NBD1 (right panel). c-d, Surface plasmon resonance (SPR) analysis of rhNBD1 binding to P31-43 and P57-68 biotinylated peptides immobilized on SA sensor chip (c) and of increasing concentrations of P31-43 and P57-68 peptides 15 on rhNBD1 covalently bound to the CMS sensor chip (d).

[3] = biological target: NBD1 ATPase activity; experiment: NBD1 ATPase activity (malachite green kit); type: biochemical, human
Procedure: The measurement of NBD1 ATPase activity was performed with a malachite green based kit supplied by Sigma (cod. MAK113) in accordance with the manufacturer's instructions. The enzyme activity was measured at 620 nm at room temperature using a Multiskan 96 well plates reader.

[4] = system: TG2 / NBD1; experiment: Cell-free system with recombinant TG2, NBD1 and synthetic peptide (native PAGE); type: biochemical; conditions: Ca2+-activated TG2
Procedure: FIG. 5: a, Immunoprecipitation of TG2 protein 15 in Caco-2 cells challenged with P57-68, PGAV or P31-43 and blotted with HRP-streptavidin. b, Immunoprecipitation of CFTR protein in Caco-2 cells challenged with P31-43 in the presence of absence of the TG2 inhibitor ZDON or TG2 RNA silencing and 20 blotted with anti-isopeptide glutamime-lysine and anti-TG2 antibodies. c, Recombinant TG2 and/or NBD1 incubated in vitro with P31-43 and solved in native page in the presence or absence of Ca2+. d, Immunoprecipitation of CFTR protein and immunblot with anti-CFTR antibodies or anti-TG2 antibodies. e, Immunoprecipitation of CFTR protein and immunoblot with anti-TG2 or anti-CFTR antibodies; effects of ZDON and BAPTA-AM. f, In situ detection of TG2 activity in Caco-2 cells pulsed with Ca2+ in the presence or absence of VX-770 or Z-DON. Activity assay by immunoblotting of the TG-catalyzed incorporation of 5-biotinamidopentylamine (BAP) and blotting with anti-biotin antibody. g, In situ TG2 activity assay, by immunostaining of the TG-catalysed incorporation of monodansylcadaverin, on Caco-2 cells pre-incubated with VX-770 or Z-DON and then pulsed with P31-43. Scale bar 50 μm. h, Immunoprecipitation of PKAr2a protein and immunoblot with isopeptide glutamime-lysine antibody in Caco-2 cells challenged with P57-68 or P31-43 in the absence or presence of VX-770. (i,j). […]

Sequence of rhNBD1 ATP binding site (P13569 389-646 limits assumed): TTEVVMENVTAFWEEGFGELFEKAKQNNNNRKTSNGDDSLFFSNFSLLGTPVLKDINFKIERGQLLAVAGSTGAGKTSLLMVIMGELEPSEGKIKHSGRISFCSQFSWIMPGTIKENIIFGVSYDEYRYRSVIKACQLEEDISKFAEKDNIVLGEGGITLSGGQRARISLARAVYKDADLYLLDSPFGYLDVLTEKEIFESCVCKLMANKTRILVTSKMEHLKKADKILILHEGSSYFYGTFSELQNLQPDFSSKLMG

## α-gliadin peptide LGQQQPFPPQQPY (SEQ ID 1), induces an enterocyte stress response (P31-43 sequence of alpha-gliadin)
[1]
  effect on ATP quenching of W401 fluorescence: quenching effect of ATP on W401 fluorescence was reduced
[2]; SPR, peptide immobilized on sensor chip
  interaction with rhNBD1 in the flow phase: confirmed the predicted interaction
[2]; rhNBD1 immobilized on chip, different peptide concentrations
  SPR signal on immobilized rhNBD1: yielded a dose-dependent signal
[3]
  IC50: ~50 µM
[4]
  TG2-catalyzed covalent interaction with NBD1: Ca2+-activated TG2 catalyzed covalent interactions between P31-43 and NBD1
